Assay results: US20060264623A1, “DNA-PK inhibitors” (KuDOS Pharmaceuticals Limited, priority 2005, published 2006)
Like-named read-outs stand apart in the source and are kept apart here.

Assays:
DNA-PK [1] = target: T1, DNA-PK (Homo sapiens, UniProt P78527); conditions: in vitro; read-out: IC50 towards DNA-PK; cited from earlier work
PI 3-kinase = conditions: stated to be the same as for DNA-PK; cited from earlier work
cells = conditions: cited from earlier work
DNA-PK [2] = target: T1, DNA-PK; assay: DNA-PK inhibition assay (ELISA, p53 serine 15 phosphorylation of GST-p53N66); format: biochemical, Mammalian (HeLa cell nuclear extract)
Description: In order to assess the inhibitory action of the compounds against DNA-PK in vitro, the following assay was used to determine IC50 values.
DNA-PK (250 ng) activity was measured at 30° C., in a final volume of 40 μl, in buffer containing 25 mM Hepes, pH7.4, 12.5 mM MgCl2, 50 mM KCl, 1 mM DTT, 10% Glycerol, 0.1% NP-40 and […] of the substrate GST-p53N66 (the amino terminal 66 amino acid resiudes of human wild type p53 fused to glutathione S-transferase) in polypropylene 96 well plates. To the assay mix, varying concentrations of inhibitor (in DMSO at a final concentration of 1%) were added. After 10 minutes of incubation, ATP was added to give a final concentration of 50 μM along with a 30mer double stranded DNA oligonucleotide (final concentraion of 0.5 ng/ml) to initiate the reaction. After 1 hour with shaking, 150 μl of phosphate buffered saline (PBS) was added to the reaction and 5 μl then transferred to a 96 well opaque white plate containing 45 μl of PBS per well where the GSTp53N66 substrate was allowed to bind to the wells for 1 hour. […] An anti-rabbit HRP conjugated secondary antibody (Pierce) was then employed in the ELISA before the addition of chemiluminescence reagent (NEN Renaissance) to detect the signal as measured by chemiluminescent counting via a TopCount NXT (Packard).
The enzyme activity for each compound is then calculated using the following equation: [formula] […]

HeLa cells = assay: Survival Enhancement Ratio, clonogenic survival assay after 2 Gray irradiation; format: cell-based; conditions: inhibitor 500 nM
Description: The Survival Enhancement Ratio (SER) is a ratio of the enhancement of cell kill elicited by the DNA-PK inhibitor after 2 Grays of irradiation compared to unirradiated control cells. DNA-PK inhibitors were used at a fixed concentration of 500 nM. Radiation was delivered by a Faxitron 43855D machine at a dose rate of 1 Gy pre minute The SER at 2 Gray irradiation was calculated from the formula: [formula]
The degree of cell killing was monitored by a standard clonogenic survival assay. Briefly, tissue culture treated 6-well plates were seeded with HeLa cells at an appropriate concentration to give 100-200 colonies per well and returned to the incubator in order to allow the cells to attach. Four hours later, compound or vehicle control was added to the cells. The cells were then incubated for 1 hour in the presence of inhibitor prior to irradiation at 2 Gray using a Faxitron 43855D cabinet X-ray machine. The cells were then incubated for a further 16 hours before the media was replaced with fresh media in the absence of DNA-PK inhibitor. After 8 days, colonies formed were fixed and stained with Giemsa (Sigma, Poole, UK) and scored using an automated colony counter (Oxford Optronics Ltd, Oxford, UK). The data was calculated as described above.

Row | IC50 (DNA-PK [2]) | SMILES | IC50 (DNA-PK [1]) | IC50 (PI 3-kinase) | sensitisation of cells to the effects of IR (cells) | SER (Survival Enhancement Ratio) (HeLa cells)
1 | – | O=c1cc(N2CCOCC2)oc2c(-c3ccccc3)cccc12 [LY294002] | ~1000 nM | ~1000 nM | weakly sensitise | –
2 | 760 nM | O=c1cc(N2CCOCC2)oc2c(-c3cccc(-c4ccccc4)c3)cccc12 | – | – | – | 1.5
